The source of these data is patent US9815790B2, “Chemically modified quinoline and quinolone derivatives useful as CB-1 inverse agonists” (Janssen Pharmaceutica NV, priority 2015, dated 2017).

In experiment [1] the target is CB-1 receptor (Human Cannabinoid receptor 1) (Homo sapiens (Human), UniProt P21554). In words: cAMP HTRF assay, CB-1 inverse agonism in stably transfected HEK-293 cells. It counts as cell-based. The conditions noted are these: 250 nM Forskolin, mean where tested more than once, read-out: CB1 EC50. The text has this: (§1) CB1 and CB2 receptors are Gi-coupled GPCR. Activation of CB1 and CB2 receptors results in a decrease in cAMP production. An inverse agonist of the CB1 or CB2 receptor results in the opposite effect, an increase of cAMP production. The principle of this assay is based on HTRF® technology (Homogeneous Time-Resolved Fluorescence). The method is a competitive immunoassay between native cAMP produced by cells and the cAMP labeled with the fluorophore d2. The tracer binding is quantified by a Mab anti-cAMP labeled with Eu3+TBP-NHS Cryptate (supplied as part of the assay kit). The specific signal (i.e. energy transfer) is inversely proportional to the concentration of cAMP in the standard or sample.
Sequence of CB-1 receptor (Human Cannabinoid receptor 1) (P21554 whole entry): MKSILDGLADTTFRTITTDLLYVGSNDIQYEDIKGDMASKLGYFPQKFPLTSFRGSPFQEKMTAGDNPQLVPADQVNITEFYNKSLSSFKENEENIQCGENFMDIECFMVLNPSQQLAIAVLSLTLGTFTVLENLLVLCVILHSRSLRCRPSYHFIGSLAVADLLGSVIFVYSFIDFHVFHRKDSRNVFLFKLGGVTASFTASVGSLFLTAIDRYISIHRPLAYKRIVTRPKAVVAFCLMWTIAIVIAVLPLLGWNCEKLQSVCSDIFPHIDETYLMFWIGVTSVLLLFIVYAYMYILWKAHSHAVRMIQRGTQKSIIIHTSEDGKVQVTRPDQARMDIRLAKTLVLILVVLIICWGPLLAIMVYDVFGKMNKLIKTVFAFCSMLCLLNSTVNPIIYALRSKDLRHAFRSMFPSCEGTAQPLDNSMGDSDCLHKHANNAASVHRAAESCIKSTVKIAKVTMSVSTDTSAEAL
(§2) Human CB (Cannabinoid receptor 1) was stably transfected in HEK-293 cells (DiscoveRx, cat: 93-0200C1). Human CB2R (Cannabinoid receptor 2) was stably transfected in HEK-293 cells (DiscoveRx, cat: 93-0201C1). Cell cultures were maintained in media: DMEM (Invitrogen Cat#12430-054) supplemented with 10% HI FBS (Invitrogen Cat#16140-071), 1% L-glutamine (Invitrogen Cat#25030-081), 0.2 mg/mL Hygromycin B (Invitrogen Cat#10687-010), 600 μg/mL G418 (Invitrogen Cat#10131-035), and 1× Penn/Strep (Invitrogen 15140-122). After cell expansion, aliquots were cryo-stored in media containing 5% DMSO (Pierce Cat#20684).
(§3) One day prior to experiments media was warmed to 37° C. and the cryo-stored cells were thawed in a 37° C. water bath. The cells were then added to media (10× volume) and the mixture was centrifuged at 1000 RPM for 5 min. The supernate was removed and the cells were re-suspended in media. A sample of the cell suspension was evaluated on a Cedex XS automated cell counter (Innovatis Systems) to determine viable cells/mL. Additional media was added to the cells to achieve a final cell density of 4E5 cells/mL. The cells were then plated into 384 well PDL white solid bottom plates (Greiner, Cat#781945) at 20 μL per well using a Multidrop (Thermo Scientific). Cells were removed from Row P (location of cAMP standards). Two columns of cells were plated into a clear bottom 384 well PDL coated plate (Greiner, Cat#781944) to view confluence the day of the assay. The cell plates were lidded and stored for 15 minutes in a hood, then transferred to an incubator (37° C., 5% CO2, 95% humidity) overnight.
(§4) Test compounds were solubilized in DMSO at 10 mM or for pegylated compounds 4 or 1 mM. DMSO was added to all wells of 384 well V bottom polystyrene plate (Greiner, Cat#781280) except to columns 1 and 13, rows O and P and wells M13-M23 and N13-N23. Test compounds (60 μL, 10 mM or 4 mM or 1 mM) were added to Column 1 and 13 (A1 through N1 and A13 through L13). Test compounds were serially diluted ⅓ by transferring and mixing 20 μL sample with 40 μL DMSO.
(§5) DMSO (40 μL) was added to wells of 384 well V bottom polystyrene plate: O2 through O11, M14 through M23, N14 through N23, and O14 through O23. AM630 (also known as [6-iodo-2-methyl-1-[2-(4-morpholinyl)ethyl]-1H-indol-3-yl](4-methoxyphenyl)-methanone, Cayman Chemical, Cat#10006974) (60 μL, 10 mM) was added to 01; and 1-(2,4-dichlorophenyl)-7-[(4-fluorophenyl)methylene]-4,5,6,7-tetrahydro-N-1-piperidinyl-1H-indazole-3-carboxamide (60 μL, 10 mM) was added to N13. The control was serially diluted ⅓ by transferring and mixing 20 μL sample with 40 μL DMSO. This process resulted 11 doses per control, 10 mM to 0.17 μM.
(§6) Cells plated the day prior to the assay in clear bottom plates were viewed on an inverse microscope to ensure confluency in the range of 60-75%. […]

Experiment [2] has as its target CB-2 receptor (Human CB2R, Cannabinoid receptor 2) (Homo sapiens (Human), UniProt P34972). In words: cAMP HTRF assay, CB-2 in stably transfected HEK-293 cells. As to conditions: 250 nM Forskolin, mean where tested more than once, read-out: CB2 EC50. It counts as cell-based.
From the text: as §1, §2, §3, §4, §5, §6
(In general: In TR-FRET formats the signal depends on donor and acceptor labels being close together.)

A word on the EC50: it is the midpoint of the concentration-response curve.

Sequence of CB-2 receptor (Human CB2R, Cannabinoid receptor 2) (P34972 whole entry): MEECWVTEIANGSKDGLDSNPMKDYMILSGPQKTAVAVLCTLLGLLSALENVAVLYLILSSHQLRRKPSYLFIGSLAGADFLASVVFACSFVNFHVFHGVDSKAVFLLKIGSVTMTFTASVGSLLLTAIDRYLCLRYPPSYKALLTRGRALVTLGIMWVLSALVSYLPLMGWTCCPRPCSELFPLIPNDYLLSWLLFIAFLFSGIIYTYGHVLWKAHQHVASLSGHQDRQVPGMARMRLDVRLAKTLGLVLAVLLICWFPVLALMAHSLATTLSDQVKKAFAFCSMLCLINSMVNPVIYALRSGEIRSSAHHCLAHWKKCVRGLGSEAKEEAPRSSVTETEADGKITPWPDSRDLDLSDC

Turning to `COCCOCCOCCOCCn1c(=O)cc(NC2CCN(S(=O)(=O)C(F)(F)F)CC2)c2cc(C(c3ccc(Cl)cc3)c3ccc(Cl)cc3)ccc21` [Cpd 21], the EC50 is 390 nM in experiment [1] and more than 10 µM in experiment [2].

For `NNC(=O)CCOCCOCCOCCOCCOCCOCCOCCOCCOCCOCCOCCOCCNC(=O)OCCOCCOCCOc1cc(NC2CCN(S(=O)(=O)C(F)(F)F)CC2)c2cc(C(c3ccc(Cl)cc3)c3ccc(Cl)cc3)ccc2n1` [Cpd 12], the figures for the concentration giving a half-maximal response (EC50) in experiment [1] and in experiment [2] were 94 nM and 5.4 µM, respectively.

In the case of `O=C(O)CCOCCOCCOCCOCCOCCOCCOCCOCCOCCOCCOCCOCCOc1cc(C(c2ccc(Cl)cc2)c2ccc(Cl)cc2)cc2c(NC3CCN(S(=O)(=O)C(F)(F)F)CC3)ccnc12` [Cpd 17], the EC50 was found to be 77 nM in experiment [1] and 0.74 µM in experiment [2].

`COCCOCCOCCOCCOCCOCCOCCOCCOCCOCCOCCOCCNC(=O)CCCCCOc1cc(NC2CCN(S(=O)(=O)C(F)(F)F)CC2)c2cc(C(c3ccc(Cl)cc3)c3ccc(Cl)cc3)ccc2n1` [Cpd 6]: the EC50 was determined as 19 nM in experiment [1] and 3 µM in experiment [2].

With `COCCOCCOCCOCCOCCOCCOCCOCCOCCOCCOCCOCCNC(=O)OCc1ccc(OCCOCCOCCOCCOCCOCCOc2cc(NC3CCN(S(=O)(=O)C(F)(F)F)CC3)c3cc(C(c4ccc(Cl)cc4)c4ccc(Cl)cc4)ccc3n2)cc1` [Cpd 13], the EC50 in experiment [1] amounted to 240 nM; in experiment [2], 4.06 µM.

`COCCOCCOc1ccc(Nc2cc(=O)[nH]c3ccc(C(c4ccc(Cl)cc4)c4ccc(Cl)cc4)cc23)cc1` [Cpd 20, 6-[bis(4-chlorophenyl)methyl]-4-([4-[2-(2-methoxyethoxy)ethoxy]phenyl]amino)quinolin-2-ol]: the EC50 in experiment [1] came to 47 nM; in experiment [2], 3.3 µM.

Turning to `O=S(=O)(N1CCC(Nc2cc(OCCOCCOCCOCCOCCOCCO)nc3ccc(C(c4ccc(Cl)cc4)c4ccc(Cl)cc4)cc23)CC1)C(F)(F)F` [Cpd 9], the figures for the EC50 in experiment [1] and in experiment [2] were 150 nM and more than 10 µM, respectively.

As for `O=S(=O)(N1CCC(Nc2cc(OCCOCCOCCOCCOCCOCCOc3ccc(CO)cc3)nc3ccc(C(c4ccc(Cl)cc4)c4ccc(Cl)cc4)cc23)CC1)C(F)(F)F` [Cpd 11], the figures for the EC50 in experiment [1] and in experiment [2] were 61 nM and 3.11 µM, respectively.

`O=S(=O)(N1CCC(Nc2cc(OCCOCCOCCO)nc3ccc(C(c4ccc(Cl)cc4)c4ccc(Cl)cc4)cc23)CC1)C(F)(F)F` [Cpd 8]: the EC50 is 52 nM in experiment [1] and more than 10 µM in experiment [2].
